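The compound was tested at five concentrations on cells cultured in 96-well plates, with a 48-hour exposure period. Here, GI50 denotes the concentration required for 50% inhibition of growth. TGI: total growth inhibition.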 *1 amine or outer side, *2 acyl side, *3 side chain or, on linkers, in order; H or OH if unused. Where a SMILES comes first, the peptide text is derived from it. Bridges are numbered along the chain shown (N, C = ends). Roman numbers before positions name the chains, in order. [ ]: non-standard residue; d: D form. Actinocin(9to1) = Cc1c2oc3c(C)ccc(C(=O)[*:1])c3nc-2c(C(=O)[*:2])c(N)c1=O; NMeV = CN[CH](C(=O)O)C(C)C; Sar = CNCC(=O)O
Assays:
Assay in all cases: NCI anticancer screen, dose series, 48 h
EKVX NSCLC = tested on: EKVX NSCLC
OVCAR-8 ovarian = tested on: OVCAR-8 ovarian
CAKI-1 renal = tested on: CAKI-1 renal
KM12 colon = tested on: KM12 colon
CCRF-CEM leukemia = tested on: CCRF-CEM leukemia
SK-MEL-2 melanoma = tested on: SK-MEL-2 melanoma
TK-10 renal = tested on: TK-10 renal
A549 NSCLC = tested on: A549 NSCLC
HCC-2998 colon = tested on: HCC-2998 colon
SF-539 CNS = tested on: SF-539 CNS

O=C(CCCCCCCCC(=O)N1C(=O)CC(=O)N(c2cccc(Cl)c2)C1=S)N1C(=O)CC(=O)N(c2cccc(Cl)c2)C1=S
TGI (EKVX NSCLC): > 100 µM
TGI (OVCAR-8 ovarian): > 100 µM
TGI (CAKI-1 renal): > 100 µM
TGI (KM12 colon): > 100 µM
TGI (CCRF-CEM leukemia): > 100 µM
TGI (SK-MEL-2 melanoma): > 100 µM
TGI (TK-10 renal): > 100 µM
TGI (A549 NSCLC): > 100 µM
TGI (HCC-2998 colon): > 100 µM

COc1ccc(-c2c(N)n(-c3cccc(C(=O)O)c3)c(=O)c3cc([N+](=O)[O-])ccc23)cc1
TGI (EKVX NSCLC): > 100 µM
TGI (SF-539 CNS): > 100 µM
TGI (OVCAR-8 ovarian): > 100 µM
TGI (CAKI-1 renal): > 100 µM
TGI (KM12 colon): > 100 µM
TGI (CCRF-CEM leukemia): > 100 µM
TGI (SK-MEL-2 melanoma): > 100 µM
TGI (TK-10 renal): > 100 µM
TGI (A549 NSCLC): > 100 µM
TGI (HCC-2998 colon): > 100 µM

CCOc1nc(-c2ccccc2)cc(-c2ccc(N3CCOCC3)cc2)c1C#N
TGI (EKVX NSCLC): > 100 µM
TGI (SF-539 CNS): > 100 µM
TGI (OVCAR-8 ovarian): > 100 µM
TGI (CAKI-1 renal): > 100 µM
TGI (KM12 colon): > 100 µM
TGI (CCRF-CEM leukemia): > 100 µM
TGI (SK-MEL-2 melanoma): > 100 µM
TGI (TK-10 renal): > 100 µM
TGI (A549 NSCLC): > 100 µM
TGI (HCC-2998 colon): > 100 µM

C#CC(F)(F)[C@]1(O)CC[C@H]2[C@@H]3CCC4=CC(=O)CCC4=C3[C@@H](c3ccc(C(C)=O)cc3)C[C@@]21C
GI50 (OVCAR-8 ovarian): 21.1 µM
TGI (OVCAR-8 ovarian): > 90.6 µM
GI50 (KM12 colon): 0.123 µM
TGI (KM12 colon): 52.9 µM
GI50 (SK-MEL-2 melanoma): 13.2 µM
TGI (SK-MEL-2 melanoma): 32.8 µM
GI50 (TK-10 renal): 24.9 µM
TGI (TK-10 renal): 71.4 µM
GI50 (A549 NSCLC): 25.9 µM
TGI (A549 NSCLC): > 100 µM
GI50 (HCC-2998 colon): 31.2 µM
TGI (HCC-2998 colon): > 100 µM

O=[Se](=O)c1ccccc1.O=[Se](=O)c1ccccc1.[Cu]
GI50 (SF-539 CNS): 16.4 µM
TGI (SF-539 CNS): 30.6 µM
GI50 (OVCAR-8 ovarian): 15.9 µM
TGI (OVCAR-8 ovarian): 30.2 µM
GI50 (CAKI-1 renal): 22.8 µM
TGI (CAKI-1 renal): 38.9 µM
GI50 (KM12 colon): 9.38 µM
TGI (KM12 colon): 24.6 µM
GI50 (CCRF-CEM leukemia): 7.98 µM
TGI (CCRF-CEM leukemia): 62.7 µM
GI50 (SK-MEL-2 melanoma): 18.8 µM
TGI (SK-MEL-2 melanoma): 33.5 µM
GI50 (A549 NSCLC): 26 µM
TGI (A549 NSCLC): 52.2 µM
GI50 (HCC-2998 colon): 16.6 µM
TGI (HCC-2998 colon): 32.9 µM

COc1ccc(N=N/C(=N/NC(=O)c2ccccc2)c2ccc(N(CCC#N)CCC#N)cc2C)cc1
TGI (EKVX NSCLC): > 100 µM
TGI (SF-539 CNS): 70 µM
TGI (OVCAR-8 ovarian): > 100 µM
TGI (CAKI-1 renal): > 100 µM
TGI (KM12 colon): > 100 µM
TGI (CCRF-CEM leukemia): > 100 µM
TGI (SK-MEL-2 melanoma): > 100 µM
TGI (TK-10 renal): > 100 µM
TGI (A549 NSCLC): > 100 µM
TGI (HCC-2998 colon): > 100 µM

Cc1c2oc3c(C)ccc(C(=O)NC4C(=O)NC(C(C)O)C(=O)N5CCCC5C(=O)N(C)CC(=O)N(C)C(C(C)C)C(=O)OC4C)c3nc-2c(C(=O)NC2C(=O)NC(C(C)O)C(=O)N3CCCC3C(=O)N(C)CC(=O)N(C)C(C(C)C)C(=O)OC2C)c(N)c1=O (stereo unspecified) (I: TTP[Sar][NMeV] / II: TTP[Sar][NMeV]; ester I:1-I:C, II:1-II:C; linker I:N-II:N via Actinocin(9to1); configuration not given here)
TGI (EKVX NSCLC): > 42.2 µM
TGI (SF-539 CNS): 1.44 µM
TGI (OVCAR-8 ovarian): > 82.4 µM
TGI (CAKI-1 renal): > 100 µM
TGI (KM12 colon): > 30.1 µM
TGI (CCRF-CEM leukemia): 5 µM
TGI (SK-MEL-2 melanoma): 1.03 µM
TGI (TK-10 renal): 6.18 µM
TGI (A549 NSCLC): 32.1 µM
TGI (HCC-2998 colon): > 30.3 µM

Oc1ccc(SCc2cc(O)c(O)c(O)c2)cc1
TGI (EKVX NSCLC): > 100 µM
TGI (SF-539 CNS): > 100 µM
TGI (OVCAR-8 ovarian): 49.6 µM
TGI (CAKI-1 renal): > 100 µM
TGI (KM12 colon): 42.6 µM
TGI (CCRF-CEM leukemia): 74.4 µM
TGI (SK-MEL-2 melanoma): > 100 µM
TGI (TK-10 renal): > 100 µM
TGI (A549 NSCLC): > 100 µM

O=C1NC2(CCCCC2)C2CCCCCC12 (stereo unspecified)
TGI (EKVX NSCLC): > 100 µM
TGI (SF-539 CNS): > 100 µM
TGI (KM12 colon): > 100 µM
TGI (TK-10 renal): > 100 µM
TGI (A549 NSCLC): > 100 µM
TGI (HCC-2998 colon): > 100 µM

CCOC(=O)CNC(=O)C(C)NC(=O)C(NC(=O)CC(c1ncc[nH]1)c1ncc[nH]1)C(C)CC (stereo unspecified)
TGI (EKVX NSCLC): > 100 µM
TGI (SF-539 CNS): > 100 µM
TGI (OVCAR-8 ovarian): > 100 µM
TGI (CAKI-1 renal): > 100 µM
TGI (KM12 colon): > 100 µM
TGI (CCRF-CEM leukemia): > 100 µM
TGI (SK-MEL-2 melanoma): > 100 µM
TGI (TK-10 renal): > 100 µM
TGI (A549 NSCLC): > 100 µM
TGI (HCC-2998 colon): > 100 µM

COc1cccc(N(CN2CC=CC2=O)C(C)=O)c1
TGI (EKVX NSCLC): > 100 µM
TGI (SF-539 CNS): > 100 µM
TGI (OVCAR-8 ovarian): > 100 µM
TGI (CAKI-1 renal): > 100 µM
TGI (KM12 colon): > 100 µM
TGI (CCRF-CEM leukemia): > 100 µM
TGI (SK-MEL-2 melanoma): > 100 µM
TGI (TK-10 renal): > 100 µM
TGI (A549 NSCLC): > 100 µM
TGI (HCC-2998 colon): > 100 µM

Cc1cc(-c2nc3ccccc3s2)ccc1NC(=O)[C@H](C)N
TGI (OVCAR-8 ovarian): 37.4 µM
TGI (CAKI-1 renal): 24 µM
TGI (KM12 colon): 31.1 µM
TGI (CCRF-CEM leukemia): 24.1 µM
TGI (SK-MEL-2 melanoma): 34.3 µM
TGI (A549 NSCLC): 27.3 µM
TGI (HCC-2998 colon): 23.9 µM

CSC1=C(C#N)C(=O)N(c2ccc(C)cc2)C(=S)C1C#N (stereo unspecified)
TGI (EKVX NSCLC): > 100 µM
TGI (SF-539 CNS): > 100 µM
TGI (OVCAR-8 ovarian): > 100 µM
TGI (CAKI-1 renal): > 100 µM
TGI (KM12 colon): > 100 µM
TGI (CCRF-CEM leukemia): > 100 µM
TGI (SK-MEL-2 melanoma): > 100 µM
TGI (TK-10 renal): > 100 µM
TGI (A549 NSCLC): > 100 µM
TGI (HCC-2998 colon): > 100 µM

N#C[S-].[Nd+3].c1ccc(-c2ccccn2)nc1.c1ccc(-c2ccccn2)nc1.c1ccc(-c2ccccn2)nc1
GI50 (EKVX NSCLC): 5.78 µM
TGI (EKVX NSCLC): > 100 µM
GI50 (SF-539 CNS): 3.78 µM
TGI (SF-539 CNS): > 100 µM
GI50 (OVCAR-8 ovarian): 4.8 µM
TGI (OVCAR-8 ovarian): > 100 µM
GI50 (CAKI-1 renal): 5.9 µM
TGI (CAKI-1 renal): > 100 µM
GI50 (KM12 colon): 5.62 µM
TGI (KM12 colon): > 100 µM
GI50 (SK-MEL-2 melanoma): 8.47 µM
TGI (SK-MEL-2 melanoma): 51.5 µM
GI50 (TK-10 renal): 5.05 µM
TGI (TK-10 renal): > 100 µM
GI50 (A549 NSCLC): 4.94 µM
TGI (A549 NSCLC): > 100 µM
GI50 (HCC-2998 colon): 7.87 µM
TGI (HCC-2998 colon): > 100 µM

CCc1ccc2[nH]c(O)c(-c3[nH]c4ccccc4c3N=O)c2c1
TGI (EKVX NSCLC): 20 µM
TGI (OVCAR-8 ovarian): 32.2 µM
TGI (CAKI-1 renal): 19.8 µM
TGI (KM12 colon): 4.51 µM
TGI (CCRF-CEM leukemia): > 100 µM
TGI (SK-MEL-2 melanoma): 15.3 µM
TGI (TK-10 renal): 23.7 µM
TGI (A549 NSCLC): 37 µM
TGI (HCC-2998 colon): 8.52 µM

CC(=O)OC(OC(C)=O)n1cc(C=O)c2ccccc21
TGI (OVCAR-8 ovarian): > 100 µM
TGI (CAKI-1 renal): > 100 µM
TGI (CCRF-CEM leukemia): > 100 µM
TGI (SK-MEL-2 melanoma): > 100 µM
TGI (TK-10 renal): > 100 µM
TGI (A549 NSCLC): > 100 µM
TGI (HCC-2998 colon): > 100 µM

CC[C@H](C)[C@H]1NC(=O)[C@@H](NC(=O)[C@@H](CC(C)C)N(C)CC2CCCN2C(=O)C(C)=O)[C@@H](C)OC(=O)[C@H](Cc2ccc(OC)cc2)N(C)C(=O)C2CCCN2C(=O)[C@H](CC(C)C)NC(=O)[C@@H](C)C(=O)[C@H](C(C)C)OC(=O)C[C@@H]1O (stereo partly specified)
TGI (EKVX NSCLC): 0.0509 µM
TGI (OVCAR-8 ovarian): 0.0474 µM
TGI (CAKI-1 renal): 0.338 µM
TGI (KM12 colon): 0.0105 µM
TGI (CCRF-CEM leukemia): 0.00404 µM
TGI (SK-MEL-2 melanoma): 0.00703 µM
TGI (TK-10 renal): 0.0202 µM
TGI (A549 NSCLC): 0.0335 µM
TGI (HCC-2998 colon): 0.00958 µM

O=C1Nc2cc([N+](=O)[O-])ccc2NC1/C(=N\Nc1ccccc1)C(O)c1cccc([N+](=O)[O-])c1 (stereo unspecified)
TGI (EKVX NSCLC): > 100 µM
TGI (SF-539 CNS): > 100 µM
TGI (OVCAR-8 ovarian): > 100 µM
TGI (KM12 colon): > 100 µM
TGI (CCRF-CEM leukemia): > 100 µM
TGI (SK-MEL-2 melanoma): > 100 µM
TGI (TK-10 renal): > 100 µM
TGI (A549 NSCLC): > 100 µM
TGI (HCC-2998 colon): > 100 µM

— PubChem BioAssay (NCI)
